{
  "source": "paper PMC11996864",
  "about": "“A small-molecule inhibitor of BCL10-MALT1 interaction abrogates progression of diffuse large B cell lymphoma” (The Journal of Clinical Investigation, 2025)",
  "key": {"OCI-Ly3 cells": {"test_system": "OCI-Ly3 cells", "assay": "Apoptosis, annexin V/SYTOX Blue flow cytometry", "type": "cell-based, human", "protocol": "(§1) Cell proliferation, viability, and apoptosis assays. […]\nAnnexin V Alexa 488\n(ThermoFisher Scientific, Cat# A13201) and SYTOX Blue Dead Cell (ThermoFisher Scientific, Cat# S34857) stains were used to detect apoptosis in DLBCL cells after treatment with 1 µM compounds for 8 days in TMD8 and OCI-Ly1 and for 5 days in OCI-Ly3 cells, then analyzed with flow cytometry. The percentages of cells in early and late apoptosis were combined for quantification. For CellTrace Violet, CellTiter-glo, and Annexin V apoptosis assays, cell were cultured in media with 50% of the usual serum. […]"}, "TMD8 tumor xenografts": {"test_system": "TMD8 tumor xenografts", "assay": "TMD8 xenograft in NOD-SCID mice", "type": "in vivo, mouse", "excerpt": "TMD8 cells were engrafted into 8-week-old female NOD.CB17-Prkdc^scid/J (NOD-SCID) mice from The Jackson Laboratory by subcutaneous injection of 10 × 10^6 cells resuspended in 50% Cultrex Basement Membrane Extract (R&D Systems, catalog 3632-010-02) into the right flank. OCI-Ly3 cells were engrafted into 5-week-old female NOD.Cg-Prkdc^scid Il2rg^tm1Wjl/SzJ (NSG) mice from The Jackson Laboratory by subcutaneous injection of 2.5 × 10^6 cells resuspended in Cultrex as above. OCI-Ly1 cells were engrafted into 6.5-week-old female NSG mice from The Jackson Laboratory by subcutaneous injection of 20 × 10^6 cells resuspended in Cultrex as above. For all xenograft models, when tumors reached an average volume of 100 mm^3, mice were randomized to receive M1i-124 (50 mg/kg i.p. per day), or equivalent volume of DMSO vehicle (50 μL i.p. per day). […] Tumor size was measured 3 times a week using a caliper and calculated using the formula (smallest diameter^2 × largest diameter)/2. Mice were sacrificed 24 hours after the last injection. Mice were sacrificed when the largest tumors reached 2,500 mm^3. For TMD8 xenograft experiments, tumors and various organs, including lung, heart, liver, and kidney, were collected and fixed in 10% buffered formalin, embedded in FFPE blocks, sectioned, and stained with H&E. Sections were evaluated by a board-certified pathologist."}, "CYP2D6": {"biological_target": "T1, CYP2D6 (Homo sapiens, UniProt P10635)", "T1 construct": "from tissue; host or cells: pooled, mixed-gender human liver microsomes", "T1 sequence (P10635 whole entry)": "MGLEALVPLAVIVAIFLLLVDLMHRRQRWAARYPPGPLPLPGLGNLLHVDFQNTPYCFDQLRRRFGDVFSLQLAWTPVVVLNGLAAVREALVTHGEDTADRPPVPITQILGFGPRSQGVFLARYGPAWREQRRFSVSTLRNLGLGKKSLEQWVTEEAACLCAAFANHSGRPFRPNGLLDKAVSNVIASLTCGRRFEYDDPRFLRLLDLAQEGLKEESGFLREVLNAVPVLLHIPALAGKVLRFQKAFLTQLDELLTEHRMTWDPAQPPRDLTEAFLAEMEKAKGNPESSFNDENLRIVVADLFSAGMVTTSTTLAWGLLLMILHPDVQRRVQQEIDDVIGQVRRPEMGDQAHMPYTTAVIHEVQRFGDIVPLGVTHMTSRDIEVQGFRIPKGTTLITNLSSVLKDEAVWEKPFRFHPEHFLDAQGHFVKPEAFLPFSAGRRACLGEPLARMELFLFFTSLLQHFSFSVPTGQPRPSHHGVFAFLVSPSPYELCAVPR", "assay": "Reversible CYP inhibition in human liver microsomes", "type": "in vitro ADME", "details": "read-out: Direct inhibition (IC50) CYP2D6", "protocol": "(§2) Pharmacokinetic and cytochrome P450 inhibition studies. Studies were performed with the assistance of Touchstone Biosciences (Plymouth Meeting, Pennsylvania). […]\n(§3) For reversible CYP […]\n(§4) inhibition studies, different concentrations of M1i-124 were added to 0.2 mg/ml pooled, mixed-gender human liver microsomes (HLM). Each CYP450 isoform-specific probe substrate (CYP1A2, CYP2C9, CYP2C19, CYP2D6, and CYP3A4) was incubated individually with HLM and M1i-124 or corresponding positive control inhibitor (Phenacetin, Tolbutamaide, S-Mephenytoin, Dextromethorphan, Midazolam, and Testosterone). Samples were analyzed for metabolites of the probe substrates by LC-MS/MS at each of the test compound concentrations. A decrease in the formation of the metabolites compared to vehicle control was used to calculate the […]"}, "CYP3A4T": {"biological_target": "T2, CYP3A4T (Homo sapiens, UniProt P08684)", "T2 construct": "from tissue; host or cells: pooled, mixed-gender human liver microsomes", "T2 sequence (P08684 whole entry)": "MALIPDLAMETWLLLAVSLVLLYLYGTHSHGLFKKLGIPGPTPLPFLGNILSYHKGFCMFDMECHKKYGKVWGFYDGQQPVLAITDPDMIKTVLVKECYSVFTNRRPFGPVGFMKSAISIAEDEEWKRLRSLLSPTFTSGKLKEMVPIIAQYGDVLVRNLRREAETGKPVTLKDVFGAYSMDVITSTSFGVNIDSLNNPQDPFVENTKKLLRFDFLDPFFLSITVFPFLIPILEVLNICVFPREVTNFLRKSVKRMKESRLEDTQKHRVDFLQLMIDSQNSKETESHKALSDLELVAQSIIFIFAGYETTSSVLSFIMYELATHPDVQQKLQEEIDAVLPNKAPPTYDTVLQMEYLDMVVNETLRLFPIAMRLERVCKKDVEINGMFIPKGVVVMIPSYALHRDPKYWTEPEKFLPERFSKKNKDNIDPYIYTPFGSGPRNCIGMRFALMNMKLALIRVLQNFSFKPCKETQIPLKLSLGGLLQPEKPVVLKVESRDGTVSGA", "assay": "Reversible CYP inhibition in human liver microsomes", "type": "in vitro ADME", "details": "read-out: Direct inhibition (IC50) CYP3A4T", "protocol": "as §2, §3, §4"}, "CYP2C19": {"biological_target": "T3, CYP2C19 (Homo sapiens, UniProt P33261)", "T3 construct": "from tissue; host or cells: pooled, mixed-gender human liver microsomes", "T3 sequence (P33261 whole entry)": "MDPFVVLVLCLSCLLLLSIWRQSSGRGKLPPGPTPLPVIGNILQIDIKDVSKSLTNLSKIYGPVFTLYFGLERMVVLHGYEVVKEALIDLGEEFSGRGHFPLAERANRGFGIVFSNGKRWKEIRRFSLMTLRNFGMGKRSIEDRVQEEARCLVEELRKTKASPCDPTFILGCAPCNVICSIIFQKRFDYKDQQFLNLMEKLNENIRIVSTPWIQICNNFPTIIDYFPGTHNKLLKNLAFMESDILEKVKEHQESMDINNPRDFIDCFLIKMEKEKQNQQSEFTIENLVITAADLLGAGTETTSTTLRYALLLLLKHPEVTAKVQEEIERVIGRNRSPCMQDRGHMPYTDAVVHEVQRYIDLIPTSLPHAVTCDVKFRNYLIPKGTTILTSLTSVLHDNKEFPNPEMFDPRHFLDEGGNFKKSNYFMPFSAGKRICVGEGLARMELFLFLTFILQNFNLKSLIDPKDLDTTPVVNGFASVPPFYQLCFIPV", "assay": "Reversible CYP inhibition in human liver microsomes", "type": "in vitro ADME", "details": "read-out: Direct inhibition (IC50) CYP2C19", "protocol": "as §2, §3, §4"}, "CYP3A4M": {"biological_target": "T4, CYP3A4M (Homo sapiens, UniProt P08684)", "T4 construct": "from tissue; host or cells: pooled, mixed-gender human liver microsomes", "T4 sequence (P08684 whole entry)": "as the sequence (P08684 whole entry) above", "assay": "Reversible CYP inhibition in human liver microsomes", "type": "in vitro ADME", "details": "read-out: Direct inhibition (IC50) CYP3A4M", "protocol": "as §2, §3, §4"}, "CYP2C9": {"biological_target": "T5, CYP2C9 (Homo sapiens, UniProt P11712)", "T5 construct": "from tissue; host or cells: pooled, mixed-gender human liver microsomes", "T5 sequence (P11712 whole entry)": "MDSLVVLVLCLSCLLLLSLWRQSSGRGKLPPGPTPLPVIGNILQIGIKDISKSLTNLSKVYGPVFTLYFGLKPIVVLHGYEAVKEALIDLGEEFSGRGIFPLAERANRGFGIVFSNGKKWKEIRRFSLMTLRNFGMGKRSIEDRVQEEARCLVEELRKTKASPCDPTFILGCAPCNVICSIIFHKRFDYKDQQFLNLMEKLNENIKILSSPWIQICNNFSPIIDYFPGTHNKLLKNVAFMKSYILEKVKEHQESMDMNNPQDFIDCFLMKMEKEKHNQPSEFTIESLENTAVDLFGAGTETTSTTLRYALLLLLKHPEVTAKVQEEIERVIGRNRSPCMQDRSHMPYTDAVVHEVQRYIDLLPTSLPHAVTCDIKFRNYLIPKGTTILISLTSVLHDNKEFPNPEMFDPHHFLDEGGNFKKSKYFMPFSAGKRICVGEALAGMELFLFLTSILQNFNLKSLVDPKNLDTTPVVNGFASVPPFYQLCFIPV", "assay": "Reversible CYP inhibition in human liver microsomes", "type": "in vitro ADME", "details": "read-out: Direct inhibition (IC50) CYP2C9", "protocol": "as §2, §3, §4"}, "CYP1A2": {"biological_target": "T6, CYP1A2 (Homo sapiens, UniProt P05177)", "T6 construct": "from tissue; host or cells: pooled, mixed-gender human liver microsomes", "T6 sequence (P05177 whole entry)": "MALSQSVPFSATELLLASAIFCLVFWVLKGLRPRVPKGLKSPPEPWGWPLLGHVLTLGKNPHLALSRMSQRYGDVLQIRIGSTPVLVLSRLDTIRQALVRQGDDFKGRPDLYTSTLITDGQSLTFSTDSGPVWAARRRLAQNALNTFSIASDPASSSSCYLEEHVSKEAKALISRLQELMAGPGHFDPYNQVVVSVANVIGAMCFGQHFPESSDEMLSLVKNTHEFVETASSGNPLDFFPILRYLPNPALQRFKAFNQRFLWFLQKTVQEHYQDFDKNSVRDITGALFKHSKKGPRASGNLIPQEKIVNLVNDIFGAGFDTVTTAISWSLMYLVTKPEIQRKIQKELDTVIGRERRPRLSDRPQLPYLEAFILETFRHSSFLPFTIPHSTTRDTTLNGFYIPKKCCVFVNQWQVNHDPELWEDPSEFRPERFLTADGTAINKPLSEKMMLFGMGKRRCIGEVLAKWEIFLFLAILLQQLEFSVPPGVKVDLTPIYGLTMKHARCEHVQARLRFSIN", "assay": "Reversible CYP inhibition in human liver microsomes", "type": "in vitro ADME", "details": "read-out: Direct inhibition (IC50) CYP1A2", "protocol": "as §2, §3, §4"}, "TMD8 cells": {"test_system": "TMD8 cells", "assay": "CellTiter-Glo ATP viability", "type": "cell-based, human", "protocol": "as §1\n(§5) Fluorescent Intensity (MFI) was analyzed by FlowJo (version 10.8.0, BD). CellTiter-glo luminescence assay (Promega, Cat# G7570) was used to quantify ATP levels as a surrogate marker of metabolic viability in DLBCL cells treated with compounds for 6-8 days. Annexin V Alexa 488 (ThermoFisher Scientific, Cat# A13201) and SYTOX Blue Dead Cell (ThermoFisher Scientific, Cat# S34857) stains were used to detect apoptosis in DLBCL cells after treatment with 1 µM compounds for 8 days in TMD8 and OCI-Ly1 and for 5 days in OCI-Ly3 cells, then analyzed with flow cytometry. The percentages of cells in early and late apoptosis were combined for quantification. For CellTrace Violet, CellTiter-glo, and Annexin V apoptosis assays, cell were cultured in media with 50% of the usual serum. […]"}, "OCI-Ly1 cells": {"test_system": "OCI-Ly1 cells", "assay": "CellTiter-Glo ATP viability", "type": "cell-based, human", "protocol": "as §1, §5"}, "[1]": {"test_system": "IL-2 secretion from Jurkat T cells", "assay": "Secreted IL-2 ELISA after PMA/Iono", "type": "cell-based, human", "details": "PMA/Iono treated, Suppl Fig. 4A"}},
  "note": "“And” between values parts separate entries of the source, which are not always exact repeats. Equal values may be shown once. “Also recorded” adds a separate entry of the source.",
  "data": [
    {"smiles": "O=S(=O)(NCc1ccc2c(c1)OCO2)c1ccc(Cc2ccc(S(=O)(=O)NCc3ccc4c(c3)OCO4)cc2)cc1", "note": "[M1i-124]", "values": [
      {"measurement": "apoptosis of OCI-Ly3 cells", "setting": "OCI-Ly3 cells; 1 μM, result in words", "value": "selectively induced apoptosis"},
      {"measurement": "Percent Apoptotic cells", "setting": "OCI-Ly3 cells; OCI-Ly3", "value": "91.3% and 82.7% and 75% and 93.6% and 88.1% and 93.3% and 87.8% and 75.8%"},
      {"measurement": "growth of TMD8 tumor xenografts (tumor volume, terminal tumor weight)", "setting": "TMD8 tumor xenografts; 50 mg/kg i.p. per day, 12 days, vs DMSO, result in words", "value": "significantly suppressed"},
      {"measurement": "body weight of xenograft mice", "setting": "TMD8 tumor xenografts; at conclusion of experiment, result in words", "value": "slightly lower body weights"},
      {"measurement": "microscopic evaluation of major organs", "setting": "TMD8 tumor xenografts; heart, lung, liver, adrenal, kidney, result in words", "value": "no signs of histologic abnormality"},
      {"measurement": "Terminal body weights", "setting": "TMD8 tumor xenografts; individual mice", "value": "17.69 g and 19.26 g and 19.45 g and 20.17 g and 20.3 g and 20.4 g and 20.6 g and 20.42 g"},
      {"measurement": "clinical signs during treatment", "setting": "TMD8 tumor xenografts; result in words", "value": "No abnormal clinical signs or indicators of adverse reaction were observed"},
      {"measurement": "IC50", "setting": "CYP2D6", "value": 13, "unit": "µM"},
      {"measurement": "IC50", "setting": "CYP3A4T", "value": 40, "unit": "µM"},
      {"measurement": "IC50", "setting": "CYP2C19", "value": 28, "unit": "µM"},
      {"measurement": "IC50", "setting": "CYP3A4M", "value": 28, "unit": "µM"},
      {"measurement": "IC50", "setting": "CYP2C9", "value": 21, "unit": "µM"},
      {"measurement": "IC50", "setting": "CYP1A2", "value": "> 100", "unit": "µM"},
      {"measurement": "IC50", "setting": "TMD8 cells; Homo sapiens, TMD8 cells, read-out: 50% cytotoxic concentration", "value": "~0.2", "unit": "µM"},
      {"measurement": "viability of TMD8 cells", "setting": "TMD8 cells; result in words", "value": "loss of cell viability; also recorded: dose-dependent decrease in viability"},
      {"measurement": "CellTiter-Glo viability (% of control)", "setting": "OCI-Ly1 cells; OCI-Ly1, M1i-124 (µM) 0.02", "value": "107.27% and 98.9873% and 92.7867%"},
      {"measurement": "CellTiter-Glo viability (% of control)", "setting": "OCI-Ly1 cells; OCI-Ly1, M1i-124 (µM) 0.05", "value": "97.4522% and 115.002% and 102.297%"},
      {"measurement": "CellTiter-Glo viability (% of control)", "setting": "OCI-Ly1 cells; OCI-Ly1, M1i-124 (µM) 0.1", "value": "110.647% and 95.1607% and 118.153%"},
      {"measurement": "CellTiter-Glo viability (% of control)", "setting": "OCI-Ly1 cells; OCI-Ly1, M1i-124 (µM) 0.2", "value": "107.42% and 81.8681% and 81.0306%"},
      {"measurement": "CellTiter-Glo viability (% of control)", "setting": "OCI-Ly1 cells; OCI-Ly1, M1i-124 (µM) 0.5", "value": "117.286% and 98.6082% and 99.6544%"},
      {"measurement": "CellTiter-Glo viability (% of control)", "setting": "OCI-Ly1 cells; OCI-Ly1, M1i-124 (µM) 1", "value": "125.229% and 113.171% and 94.1756%"},
      {"measurement": "CellTiter-Glo viability (% of control)", "setting": "OCI-Ly1 cells; OCI-Ly1, M1i-124 (µM) 2", "value": "125.761% and 123.625% and 96.808%"},
      {"measurement": "CellTiter-Glo viability (% of control)", "setting": "OCI-Ly1 cells; OCI-Ly1, M1i-124 (µM) 5", "value": "145.729% and 138.657% and 113.755%"}
    ]},
    {"smiles": "CN1CCCC(CN2c3ccccc3Sc3ccccc32)C1", "note": "(stereo not shown) [Mepazine, mepazine, reference compound]", "values": [
      {"measurement": "activity at 5 µM", "setting": "[1]; Homo sapiens, Jurkat, read-out: IL-2 protein level (% of control)", "value": 29.9, "unit": "%"},
      {"measurement": "IL-2 protein level (% of control)", "setting": "[1]; 5 uM", "value": "22.8269 % of control and 31.0927 % of control"}
    ]}
  ]
}
